This note sets out measurements from ChEMBL document CHEMBL5046245, “Identification of Pyruvate Carboxylase as the Cellular Target of Natural Bibenzyls with Potent Anticancer Activity against Hepatocellular Carcinoma via Metabolic Reprogramming” (J Med Chem, 2022).

The structures appear in SMILES notation. Active and inactive are the calls of the source. The calls are words filed in the database; no cut-off is given here. Some results are limits rather than exact numbers.

Test [1] has as its system HepG2. Briefly: Cytotoxicity against human HepG2 cells assessed as cell viability at 62.5 to 250 nM preincubated for 48 hrs by MTT assay. Particulars: dose 62.5-250 nM. The format is functional, cell-based. (Tetrazolium assays rely on reduction of a dye to a coloured formazan, in cell work by metabolically active cells.)
Test [2] can be described thus: Competitive inhibition of pyruvate carboxylase (unknown origin) assessed as inhibition constant at varying concentrations of ATP. Details: species or system Homo sapiens.
In test [3] the test system is HepG2. Briefly: Cytotoxicity against human HepG2 cells assessed as cell viability at 1 to 4 nM incubated for 2 hrs by MTT assay. The format is functional, cell-based. Particulars: dose 1-4 nM.
Test [4] relates to HepG2. Briefly: Antiproliferative activity against human HepG2 cells assessed as inhibition of cell growth measured after 48 hrs by MTT assay. The format is functional, cell-based. Particulars: HepG2, 48 h.
A short description of test [5]: Antiproliferative activity against human HCCLM3 cells assessed as inhibition of cell growth measured after 48 hrs by MTT assay. The format is functional, cell-based. Conditions: HCCLM3, 48 h.
Test [6] can be described thus: Inhibition of pyruvate carboxylase in human HCCLM3 cell lysate measured upto 24 hrs by PC assay kit. The format is subcellular.
In test [7] the test system is HepG2. Briefly: Cytotoxicity against human HepG2 cells assessed as cell viability at 8 nM incubated for 48 hrs by MTT assay. The format is functional, cell-based.
The nature of test [8]: Inhibition of pyruvate carboxylase in human HCCLM3 cells measured upto 24 hrs by PC assay kit. The format is cell-based.
Test [9] in a line: Non-competitive inhibition of pyruvate carboxylase (unknown origin). Details: species or system Homo sapiens.
In test [10] the test system is HepG2. Briefly: Competitive inhibition of recombinant pyruvate carboxylase in human HepG2 cell lysate in presence of Erianin at 20 uM for 120 mins followed by irradiation of 365 nm UV light for 15 min by Native -PAGE analysis. The format is subcellular.
Test [11] in a line: Inhibition of pyruvate carboxylase in human HepG2 cells measured upto 24 hrs by PC assay kit. The format is cell-based.
Test [12] can be described thus: Inhibition of pyruvate carboxylase in human HepG2 cell lysate measured upto 24 hrs by PC assay kit. The format is subcellular.

Take `COc1ccc(CC(O)c2cc(OC)c(OC)c(OC)c2)cc1O` (configuration not stated): the outcome with HepG2 [1] was Active.

In the case of `N[C@@H](CC(=O)O)C(=O)O` [ASPARTIC ACID], in test [2], the Ki amounted to 700 nM.

With `COc1ccc(CC(CCOC(=O)CCCCCNC(=O)CCCC[C@@H]2SC[C@@H]3NC(=O)N[C@@H]32)c2cc(OC)c(OC)c(OC)c2)cc1O` (some centres not stated), the result in the test with HepG2 [3] was inactive.

On to `OC[C@H]1O[C@@H](Oc2cccc3c2-c2c(O)cc(O)cc2C[C@H]3O)[C@H](O)[C@@H](O)[C@@H]1O`, for which the IC50 in the test on HepG2 [4] is greater than 6420 nM; in test [5], greater than 100 µM; in [6], greater than 50000 nM.

For `COc1ccc(CC(CCNC(=O)COCCOCCOCCNC(=O)[C@H](CCCCNC(=O)CCCC[C@@H]2SC[C@@H]3NC(=O)N[C@@H]32)NC(=O)c2ccc(N=[N+]=[N-])cc2)c2cc(OC)c(OC)c(OC)c2)cc1O` (some centres not stated), the result in the test on HepG2 [7] was inactive.

With `COc1ccc(CC(CCNC(=O)CNC(=O)[C@H](CCCCNC(=O)CCCC[C@@H]2SC[C@@H]3NC(=O)N[C@@H]32)NC(=O)c2ccc(N=[N+]=[N-])cc2)c2cc(OC)c(OC)c(OC)c2)cc1O` (some centres not stated), the result with HepG2 [7] was inactive.

Take `COc1ccc(CCc2cc(OC)c(OC)c(OC)c2OCCOC(=O)CCCCCNC(=O)CCCC[C@@H]2SC[C@@H]3NC(=O)N[C@@H]32)cc1O`: the result in the test with HepG2 [3] was inactive.

In the case of `COc1cc(O)cc2c1-c1c(O)cccc1[C@@H](O)C2`, the IC50 in the test on HepG2 [4] is 2580 nM; in [5], greater than 100 µM; in test [8] it was 47 nM; in [6] it was 264 nM.

For `COc1cc(O)cc2c1-c1c(O)cccc1C[C@@H]2O`, the half-inhibitory concentration (IC50) was greater than 100000 nM in the test on HepG2 [4], greater than 100 µM in test [5] and greater than 50000 nM in test [6].

With `COc1ccc(CC(CCNC(=O)COCCOCCOCCNC(=O)[C@H](CCCCNC(=O)CCCC[C@@H]2SC[C@@H]3NC(=O)N[C@@H]32)NC(=O)CCC2(C)N=N2)c2cc(OC)c(OC)c(OC)c2)cc1O` (some centres not stated), the outcome with HepG2 [7] was inactive.

For `COc1ccc(CC(CCNC(=O)[C@H](CCCCNC(=O)CCC2(C)N=N2)NC(=O)CCCC[C@@H]2SC[C@@H]3NC(=O)N[C@@H]32)c2cc(OC)c(OC)c(OC)c2)cc1O` (some centres not stated), the outcome in the test with HepG2 [7] was inactive.

`COc1ccc(/C=C/c2cc(O)cc(O[C@@H]3O[C@H](CO)[C@@H](O)[C@H](O)[C@H]3O)c2)cc1O` [RHAPONTIN]: the figures for the IC50 (in the test with HepG2 [4]; in [5]; in test [6]) were greater than 100000 nM, greater than 100 µM and greater than 50000 nM, respectively.

For `Nc1ncnc2c1ncn2[C@@H]1O[C@@H]2CO[P@@](=O)(O)O[C@H]3[C@@H](O)[C@H](n4cnc5c(N)ncnc54)O[C@@H]3CO[P@@](=O)(O)O[C@H]2[C@H]1O`, in test [9], the Ki is 700 nM.

Consider `COc1cc(O)cc(CCc2ccc(OC)c(O)c2)c1`, for which the half-inhibitory concentration (IC50) in the test with HepG2 [4] is greater than 100000 nM; in test [5] it was greater than 100 µM; in test [6] it was greater than 50000 nM.

For `COc1ccc(CC(CCNC(=O)[C@H](CCCCNC(=O)CCCC[C@@H]2SC[C@@H]3NC(=O)N[C@@H]32)NC(=O)CCC2(C)N=N2)c2cc(OC)c(OC)c(OC)c2)cc1O` (some centres not stated), the result in the test with HepG2 [7] was inactive.

For `COc1cc(CCc2cc(OC)c(O)c(OC)c2)ccc1O` [MOSCATILIN], the IC50 came to 3020 nM in the test on HepG2 [4], 2.09 µM in test [5], 34 nM in test [8] and 191 nM in test [6].

For `COc1cc(CCc2cc(O)c(OC)c(OC)c2)ccc1O`, the IC50 in the test on HepG2 [4] is 1090 nM; in test [5] it was greater than 100 µM; in test [6], greater than 50000 nM.

Regarding `COc1ccc(CC(CCNC(=O)[C@H](CCCCNC(=O)CCC2(C)N=N2)N=[N+]=[N-])c2cc(OC)c(OC)c(OC)c2)cc1O` (some centres not stated), the inhibition entry with HepG2 [10] is “Active”.

On to `COc1cc(O)cc2c1-c1c(O)cc(O)cc1C[C@@H]2O`, for which the IC50 was greater than 100000 nM with HepG2 [4], greater than 100 µM in [5] and greater than 50000 nM in [6].

Consider `CCCCCCCCOC(=O)c1cc(O)c(O)c(O)c1` [OCTYL_GALLATE], for which the Ki in test [9] is 700 nM.

With `COc1cc(O[C@@H]2O[C@H](CO)[C@@H](O)[C@H](O)[C@H]2O)cc2ccc3cccc(O)c3c12`, the IC50 with HepG2 [4] stood at 2660 nM; in test [5], 29.9 µM; in test [8], 97 nM; in test [6], 65 nM.

As to `COc1ccc(CC(CCNC(=O)[C@H](CCCCNC(=O)CCCC[C@@H]2SC[C@@H]3NC(=O)N[C@@H]32)NC(=O)c2ccc(N=[N+]=[N-])cc2)c2cc(OC)c(OC)c(OC)c2)cc1O` (some centres not stated), the outcome in the test with HepG2 [7] was inactive.

Regarding `COc1ccc(CC(CCO)c2cc(OC)c(OC)c(OC)c2)cc1O` (configuration not stated), the outcome in the test with HepG2 [1] was Active. For the same molecule, the outcome with HepG2 [7] was inactive.

On to `COc1cc(O)cc2c1-c1c(O)cc(O)cc1[C@@H](O)C2`, for which the figures for the IC50 (in the test with HepG2 [4]; in test [5]; in test [6]) were greater than 100000 nM, greater than 100 µM and greater than 50000 nM, respectively.

With `COc1cc(O)c2c(c1)CCc1cccc(O)c1-2`, the IC50 with HepG2 [4] amounted to 1740 nM; in test [5] it was 8.54 µM; in [8], 104 nM; in [6], 204 nM.

For `COc1ccc(CC(CCNC(=O)[C@H](CCCCNC(=O)c2ccc(N=[N+]=[N-])cc2)NC(=O)CCCC[C@@H]2SC[C@@H]3NC(=O)N[C@@H]32)c2cc(OC)c(OC)c(OC)c2)cc1O` (some centres not stated), the result with HepG2 [7] was inactive.

Regarding `O=C(O)CC(=O)C(=O)O` [OXALOACETATE], the IC50 was 100 nM in test [11], 100 nM in [8], 88.8 nM in [12] and 88.8 nM in test [6].

As to `COc1cc(O)cc(CCc2ccc(O)c(OC)c2)c1` [GIGANTOL], the IC50 in the test with HepG2 [4] was 1880 nM; in test [5], 57.9 µM; in [8], greater than 50000 nM; in [6], 125 nM.

Turning to `COc1cc(O[C@@H]2O[C@H](CO)[C@@H](O)[C@H](O)[C@H]2O)cc2c1-c1c(O)cccc1[C@H](O)C2`, the IC50 is greater than 100000 nM with HepG2 [4], greater than 100 µM in test [5] and greater than 50000 nM in test [6].

For the molecule `COc1cc(O)cc2c1-c1c(O)cccc1CC2` [HIRCINOL], the IC50 with HepG2 [4] is greater than 100000 nM; in test [5], greater than 100 µM; in test [6], greater than 50000 nM.

As a reminder, the Ki is a dissociation constant, usually derived from enzyme kinetics or from competition with a known ligand. In general, IC50 refers to the concentration at which inhibition is half-maximal.
